Measurements taken from patent US20230233569A1 (Revolution Medicines, Inc., priority 2020, published 2023).
Like-named read-outs stand apart in the source and are kept apart here.

Key:
Assay in all cases: Ras-Raf disruption / FRET / MOA assay (BRAF RBD)
Type in all cases: biochemical
NRAS G12C = NRAS G12C (Homo sapiens, UniProt P01111+P62937, G12C)
Summary of the method: (§1)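 Compound-induced Ras–Cyclophilin A ternary complex disrupting BRAF RBD binding, read as IC50 from reduced TR-FRET ratio relative to DMSO. Final: Ras-GMPPNP 12.5 nM, BRAF RBD 50 nM, Cyclophilin A 25 μM, top compound 30 μM (3-fold, 10 points); 3 h at 25 °C, then 1.5 h with detection antibodies.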

KRAS G12V = KRAS G12V (Homo sapiens, UniProt P01116+P62937, G12V); conditions: with Cyclophilin A
Summary of the method: as §1

KRAS G13C = KRAS G13C (Homo sapiens, UniProt P01116+P62937, G13C); conditions: with Cyclophilin A
Summary of the method: as §1

KRAS WT = KRAS WT (Homo sapiens, UniProt P01116+P62937); conditions: with Cyclophilin A
Summary of the method: as §1

KRAS G12D = KRAS G12D (Homo sapiens, UniProt P01116+P62937, G12D); conditions: with Cyclophilin A
Summary of the method: as §1

KRAS G13D = KRAS G13D (Homo sapiens, UniProt P01116+P62937, G13D); conditions: with Cyclophilin A
Summary of the method: as §1

KRAS G12S = KRAS G12S (Homo sapiens, UniProt P01116+P62937, G12S); conditions: with Cyclophilin A
Summary of the method: as §1

KRAS G12C = KRAS G12C (Homo sapiens, UniProt P01116+P62937, G12C); conditions: with Cyclophilin A
Summary of the method: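 TR-FRET read-out after 1.5 h with anti-His Eu-W1024 (10 nM) and anti-GST APC (50 nM), following 3 h at 25 °C of compound (top 30 μM, 3-fold, 10 points) with 25 μM Cyclophilin A, 12.5 nM GMPPNP-loaded K-Ras G12C and 50 nM BRAF RBD; IC50 reported.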

[1] = NRAS G12C, read-out: NRAS G12C FRET data IC50
[2] = Ras-Raf disruption, read-out: KRAS G12V FRET data IC50
[3] = Ras-Raf disruption, read-out: KRAS G13C FRET data IC50
[4] = Ras-Raf disruption, read-out: KRAS WT FRET data IC50
[5] = Ras-Raf disruption, read-out: KRAS G12D FRET data IC50
[6] = Ras-Raf disruption, read-out: KRAS G13D FRET data IC50
[7] = Ras-Raf disruption, read-out: KRAS G12S FRET data IC50
[8] = Ras-Raf disruption, read-out: KRAS G12C FRET data IC50
[9] = NRAS G12C FRET data IC50, NRAS G12C
[10] = KRAS G12V FRET data IC50, Ras-Raf disruption
[11] = KRAS G13C FRET data IC50, Ras-Raf disruption
[12] = KRAS WT FRET data IC50, Ras-Raf disruption
[13] = KRAS G12D FRET data IC50, Ras-Raf disruption
[14] = KRAS G13D FRET data IC50, Ras-Raf disruption
[15] = KRAS G12S FRET data IC50, Ras-Raf disruption
[16] = KRAS G12C FRET data IC50, Ras-Raf disruption

Sequence of KRAS G12D (P01116 1-169 isoform P01116-2 G12D limits assumed): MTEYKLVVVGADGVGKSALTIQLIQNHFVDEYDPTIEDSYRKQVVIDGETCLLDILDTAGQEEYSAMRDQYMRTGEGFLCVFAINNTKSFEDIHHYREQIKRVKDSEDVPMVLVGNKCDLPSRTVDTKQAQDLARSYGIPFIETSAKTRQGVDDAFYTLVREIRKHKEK
Sequence of KRAS G12D (P62937 whole entry): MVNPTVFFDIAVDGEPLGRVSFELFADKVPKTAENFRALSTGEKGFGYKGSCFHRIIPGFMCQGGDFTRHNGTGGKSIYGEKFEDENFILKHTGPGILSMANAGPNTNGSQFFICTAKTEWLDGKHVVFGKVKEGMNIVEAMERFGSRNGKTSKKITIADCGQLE
Sequence of NRAS G12C (P01111 whole entry G12C): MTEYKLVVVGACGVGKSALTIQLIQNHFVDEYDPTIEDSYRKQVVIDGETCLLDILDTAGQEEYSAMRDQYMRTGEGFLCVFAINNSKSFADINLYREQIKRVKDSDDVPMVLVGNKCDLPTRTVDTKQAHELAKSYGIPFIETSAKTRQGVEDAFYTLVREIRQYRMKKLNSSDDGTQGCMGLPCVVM
Sequence of NRAS G12C (P62937 whole entry): as the sequence (P62937 whole entry) above
Sequence of KRAS WT (P01116 1-169 isoform P01116-2 limits assumed): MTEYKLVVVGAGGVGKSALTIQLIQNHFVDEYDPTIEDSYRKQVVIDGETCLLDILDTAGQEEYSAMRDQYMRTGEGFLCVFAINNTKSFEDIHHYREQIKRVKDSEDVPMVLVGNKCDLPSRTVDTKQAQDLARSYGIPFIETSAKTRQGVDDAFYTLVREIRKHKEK
Sequence of KRAS WT (P62937 whole entry): as the sequence (P62937 whole entry) above
Sequence of KRAS G12S (P01116 1-169 isoform P01116-2 G12S limits assumed): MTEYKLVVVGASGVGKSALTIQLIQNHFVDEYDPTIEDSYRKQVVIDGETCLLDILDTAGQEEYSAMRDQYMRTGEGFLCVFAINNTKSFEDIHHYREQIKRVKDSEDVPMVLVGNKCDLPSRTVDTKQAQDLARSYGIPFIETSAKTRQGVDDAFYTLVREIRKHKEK
Sequence of KRAS G12S (P62937 whole entry): as the sequence (P62937 whole entry) above
Sequence of KRAS G12V (P01116 1-169 isoform P01116-2 G12V limits assumed): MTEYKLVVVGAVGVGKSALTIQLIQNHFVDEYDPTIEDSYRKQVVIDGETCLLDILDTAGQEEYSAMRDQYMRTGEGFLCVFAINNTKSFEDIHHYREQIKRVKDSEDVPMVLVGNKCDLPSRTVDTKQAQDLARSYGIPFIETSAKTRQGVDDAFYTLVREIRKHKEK
Sequence of KRAS G12V (P62937 whole entry): as the sequence (P62937 whole entry) above
Sequence of KRAS G12C (P01116 1-169 isoform P01116-2 G12C limits assumed): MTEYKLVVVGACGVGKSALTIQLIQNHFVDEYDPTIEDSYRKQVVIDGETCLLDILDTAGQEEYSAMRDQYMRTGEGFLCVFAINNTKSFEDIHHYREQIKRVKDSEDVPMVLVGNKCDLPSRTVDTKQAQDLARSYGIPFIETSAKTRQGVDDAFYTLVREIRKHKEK
Sequence of KRAS G12C (P62937 whole entry): as the sequence (P62937 whole entry) above
Sequence of KRAS G13D (P01116 1-169 isoform P01116-2 G13D limits assumed): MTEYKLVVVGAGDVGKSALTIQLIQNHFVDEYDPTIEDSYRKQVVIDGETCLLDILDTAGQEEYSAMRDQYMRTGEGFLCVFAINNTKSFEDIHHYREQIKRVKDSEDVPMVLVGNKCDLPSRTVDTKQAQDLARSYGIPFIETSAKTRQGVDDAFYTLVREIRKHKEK
Sequence of KRAS G13D (P62937 whole entry): as the sequence (P62937 whole entry) above
Sequence of KRAS G13C (P01116 1-169 isoform P01116-2 G13C limits assumed): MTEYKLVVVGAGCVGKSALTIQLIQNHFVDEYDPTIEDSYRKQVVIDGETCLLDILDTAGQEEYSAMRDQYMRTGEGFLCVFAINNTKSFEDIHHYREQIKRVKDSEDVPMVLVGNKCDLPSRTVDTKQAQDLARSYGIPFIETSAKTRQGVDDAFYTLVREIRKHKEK
Sequence of KRAS G13C (P62937 whole entry): as the sequence (P62937 whole entry) above

Compound	IC50 (NRAS G12C; [1])	IC50 (KRAS G12V; [2])	IC50 (KRAS G13C; [3])	IC50 (KRAS WT; [4])	IC50 (KRAS G12D; [5])	IC50 (KRAS G13D; [6])	IC50 (KRAS G12S; [7])	IC50 (KRAS G12C; [8])	IC50 (NRAS G12C; [9])	IC50 (KRAS G12V; [10])	IC50 (KRAS G13C; [11])	IC50 (KRAS WT; [12])	IC50 (KRAS G12D; [13])	IC50 (KRAS G13D; [14])	IC50 (KRAS G12S; [15])	IC50 (KRAS G12C; [16])
CCn1c(-c2cccnc2[C@H](C)OC)c2c3cc(ccc31)-c1cccc(c1)C[C@H](NC(=O)[C@H](C(C)C)N(C)C(=O)[C@H]1C[C@H](N=C=Nc3c(C)cccc3C)C1)C(=O)N1CCC[C@H](N1)C(=O)OCC(C)(C)C2 [Example 126]	100 to 1000 nM	1000 to 10000 nM	100 to 1000 nM	1000 to 10000 nM	1000 to 10000 nM	1000 to 10000 nM	100 to 1000 nM	100 to 1000 nM	–	–	–	–	–	–	–	–
CCn1c(-c2cccnc2[C@H](C)OC)c2c3cc(ccc31)-c1cc(O)cc(c1)C[C@H](NC(=O)[C@H](C(C)C)N(C)C(=O)[C@H]1CCN(C(=O)[C@H]3CN3)C1)C(=O)N1CCC[C@H](N1)C(=O)OCC(C)(C)C2 (single isomer, unassigned) [Example 43A]	< 10 nM	10 to 100 nM	10 to 100 nM	10 to 100 nM	10 to 100 nM	10 to 100 nM	10 to 100 nM	< 10 nM	–	–	–	–	–	–	–	–
CCn1c(-c2cccnc2[C@H](C)OC)c2c3cc(ccc31)-c1cc(O)cc(c1)C[C@H](NC(=O)[C@H](C(C)C)N(C)C(=O)N1CCCN(C(=O)[C@H]3CN3)CC1)C(=O)N1CCC[C@H](N1)C(=O)OCC(C)(C)C2 (atropisomer, axis not shown) [Example 190]	10 to 100 nM	10 to 100 nM	10 to 100 nM	10 to 100 nM	100 to 1000 nM	100 to 1000 nM	10 to 100 nM	< 10 nM	–	–	–	–	–	–	–	–
CCn1c(-c2cccnc2[C@H](C)OC)c2c3cc(ccc31)-c1csc(n1)C[C@H](NC(=O)[C@H](C(C)C)N(C)C(=O)N1CCN(C(=O)[C@@H]3CN3)CC1)C(=O)N1CCC[C@H](N1)C(=O)OCC(C)(C)C2 [Example 168]	10 to 100 nM	100 to 1000 nM	100 to 1000 nM	10 to 100 nM	100 to 1000 nM	100 to 1000 nM	10 to 100 nM	10 to 100 nM	–	–	–	–	–	–	–	–
CCn1c(-c2cccnc2[C@H](C)OC)c2c3cc(ccc31)-c1cc(O)cc(c1)C[C@H](NC(=O)[C@H](C(C)C)N1CC[C@@]3(CCN(C(=O)[C@H]4CN4)C3)C1=O)C(=O)N1CCC[C@H](N1)C(=O)OCC(C)(C)C2 [Example 149]	< 10 nM	10 to 100 nM	10 to 100 nM	10 to 100 nM	100 to 1000 nM	10 to 100 nM	10 to 100 nM	< 10 nM	–	–	–	–	–	–	–	–
CCn1c(-c2cccnc2[C@H](C)OC)c2c3cc(ccc31)-c1cc(O)cc(c1)C[C@H](NC(=O)[C@H](C(C)C)N(C)C(=O)[C@H]1CCN1C(=O)[C@@H]1CN1)C(=O)N1CCC[C@H](N1)C(=O)OCC(C)(C)C2 [Example 157]	–	–	–	–	–	–	–	–	10 to 100 nM	10 to 100 nM	10 to 100 nM	10 to 100 nM	100 to 1000 nM	10 to 100 nM	10 to 100 nM	10 to 100 nM
CCn1c(-c2cnccc2COC)c2c3cc(ccc31)-c1cccc(c1)C[C@H](NC(=O)[C@H](C(C)C)N(C)C(=O)CCN=C=NCCOC)C(=O)N1CCC[C@H](N1)C(=O)OCC(C)(C)C2 [23 A and B]	10 to 100 nM	> 10000 nM	1000 to 10000 nM	1000 to 10000 nM	1000 to 10000 nM	> 10000 nM	1000 to 10000 nM	10 to 100 nM	–	–	–	–	–	–	–	–
CCn1c(-c2cccnc2[C@H](C)OC)c2c3cc(ccc31)-c1cc(O)cc(c1)C[C@H](NC(=O)[C@H](C(C)C)N(C)C(=O)C1CCN(C(=O)[C@H]3CN3)CC1)C(=O)N1CCC[C@H](N1)C(=O)OCC(C)(C)C2 [Example 86]	< 10 nM	100 to 1000 nM	10 to 100 nM	10 to 100 nM	100 to 1000 nM	10 to 100 nM	10 to 100 nM	10 to 100 nM	–	–	–	–	–	–	–	–
CCn1c(-c2cccnc2[C@H](C)OC)c2c3cc(ccc31)-c1cc(O)cc(c1)C[C@H](NC(=O)[C@H](C(C)C)N(C)C(=O)N1CC(NC(=O)[C@H]3CN3)C1)C(=O)N1CCC[C@H](N1)C(=O)OCC(C)(C)C2 (atropisomer, axis not shown) [Example 189]	10 to 100 nM	10 to 100 nM	10 to 100 nM	10 to 100 nM	100 to 1000 nM	100 to 1000 nM	100 to 1000 nM	10 to 100 nM	–	–	–	–	–	–	–	–
CCn1c(-c2cccnc2[C@H](C)OC)c2c3cc(ccc31)-c1cccc(c1)C[C@H](NC(=O)[C@H](C(C)C)N(C)C(=O)[C@H]1C[C@H](N=C=NCc3ccccc3OC)C1)C(=O)N1CCC[C@H](N1)C(=O)OCC(C)(C)C2 [Example 77]	10 to 100 nM	1000 to 10000 nM	10 to 100 nM	1000 to 10000 nM	1000 to 10000 nM	> 10000 nM	1000 to 10000 nM	10 to 100 nM	–	–	–	–	–	–	–	–
CCn1c(-c2cnccc2COC)c2c3cc(ccc31)-c1cccc(c1)C[C@H](NC(=O)[C@H](C(C)C)N(C)C(=O)CC(C)(C)N=C=Nc1ccc(OC)cc1)C(=O)N1CCC[C@H](N1)C(=O)OCC(C)(C)C2 [64 A and B]	> 10000 nM	> 10000 nM	> 10000 nM	> 10000 nM	> 10000 nM	> 10000 nM	> 10000 nM	> 10000 nM	–	–	–	–	–	–	–	–
CCn1c(-c2cccnc2[C@H](C)OC)c2c3cc(ccc31)-c1cc(O)cc(c1)C[C@H](NC(=O)[C@H](C(C)C)N(C)C(=O)N1CC(NC(=O)[C@@H]3CN3)C1)C(=O)N1CCC[C@H](N1)C(=O)OCC(C)(C)C2 (atropisomer, axis not shown) [Example 188]	10 to 100 nM	100 to 1000 nM	10 to 100 nM	100 to 1000 nM	100 to 1000 nM	100 to 1000 nM	100 to 1000 nM	10 to 100 nM	–	–	–	–	–	–	–	–
CCn1c(-c2cccnc2[C@H](C)OC)c2c3cc(ccc31)-c1cc(O)cc(c1)C[C@H](NC(=O)[C@H](C(C)C)N1CC[C@]3(CCN(C(=O)[C@H]4CN4)C3)C1=O)C(=O)N1CCC[C@H](N1)C(=O)OCC(C)(C)C2 [Example 146]	< 10 nM	10 to 100 nM	10 to 100 nM	10 to 100 nM	10 to 100 nM	100 to 1000 nM	10 to 100 nM	< 10 nM	–	–	–	–	–	–	–	–
CCn1c(-c2cccnc2[C@H](C)OC)c2c3cc(ccc31)-c1cc(O)cc(c1)C[C@H](NC(=O)[C@H](C1CCCC1)N1CC[C@]3(CCN(C(=O)[C@H]4CN4)C3)C1=O)C(=O)N1CCC[C@H](N1)C(=O)OCC(C)(C)C2 [Example 175, (2S)-2-((S)-7-((R)-aziridine-2-carbonyl)-1-oxo-2,7-diazaspiro[4.4]nonan-2-yl)-2-cyclopentyl-N-((6^3S,4S)-1^1-ethyl-2^5-hydroxy-1^2-(2-((S)-1-methoxyethyl)pyridin-3-yl)-10,10-dimethyl-5,7-dioxo-6^1,6^2,6^3,6^4,6^5,6^6-hexahydro-1^1H-8-oxa-1(5,3)-indola-6(1,3)-pyridazina-2(1,3)-benzenacycloundecaphane-4-yl)acetamide]	< 10 nM	10 to 100 nM	10 to 100 nM	10 to 100 nM	10 to 100 nM	10 to 100 nM	10 to 100 nM	< 10 nM	–	–	–	–	–	–	–	–
CCn1c(-c2cccnc2[C@H](C)OC)c2c3cc(ccc31)-c1cc(O)cc(c1)C[C@H](NC(=O)[C@H](C1CCCC1)N1CC[C@@]3(CCN(C(=O)[C@H]4CN4)C3)C1=O)C(=O)N1CCC[C@H](N1)C(=O)OCC(C)(C)C2 [Example 174]	< 10 nM	10 to 100 nM	10 to 100 nM	10 to 100 nM	100 to 1000 nM	10 to 100 nM	10 to 100 nM	< 10 nM	–	–	–	–	–	–	–	–
CCn1c(-c2cccnc2[C@H](C)OC)c2c3cc(ccc31)-c1csc(n1)C[C@H](NC(=O)[C@H](C1CCCC1)N(C)C(=O)CN(C)C(=O)[C@H]1CN1)C(=O)N1CCC[C@H](N1)C(=O)OCC(C)(C)C2 [Example 132]	–	–	–	–	–	–	–	–	100 to 1000 nM	1000 to 10000 nM	1000 to 10000 nM	1000 to 10000 nM	1000 to 10000 nM	1000 to 10000 nM	1000 to 10000 nM	100 to 1000 nM
